Results as given in patent US4698339A, “Carbapenems, their production and use” (Takeda Chemical Industries, Ltd., priority 1983, dated 1987).
≈ marks a conversion by molar mass, not a printed value.

What was measured:
Escherichia coli 0-111 = experiment: MIC by agar dilution method, Escherichia coli 0-111; type: cell-based; conditions: 0111, Trypticase soy agar, about 10^8 CFU/ml, 18 hours at 37° C., read-out: MIC (minimal inhibitory concentration)
Description: (§1) Several examples of the compound (I) as obtained in Examples were tested for MIC (mcg/ml) by the following method.
(§2) The MIC of each test compound was determined by the agar dilution method. Thus, 1.0 ml of each aqueous serial dilution of the test compound was poured into a petri dish and then […] of Trypticase soy agar was poured into the dish followed by intimate mixing. The mixed agar plate was smeared with the suspension of a test organism (about 10^8 CFU/ml).
(2) Escherichia coli 0-111

[1] = test system: Staphylococcus aureus FDA 209P; experiment: MIC by agar dilution method, Staphylococcus aureus FDA 209P; type: cell-based; conditions: FDA209P, Trypticase soy agar, about 10^8 CFU/ml, 18 hours at 37° C., read-out: MIC (minimal inhibitory concentration)
Description: as §1, §2
(1) Staphylococcus aureus FDA 209P

[2] = test system: Citrobacter freundii IFO 12681; experiment: MIC by agar dilution method, Citrobacter freundii IFO 12681; type: cell-based; conditions: IFO12681, Trypticase soy agar, about 10^8 CFU/ml, 18 hours at 37° C., read-out: MIC (minimal inhibitory concentration)
Description: as §1, §2
(3) Citrobacter freundii IFO 12681

[3] = stability against a mouse kidney homogenate; type: in vitro ADME; conditions: 0.05M phosphate buffer (pH 6.9), 30° C., test compound solution 1 mg/ml mixed 1:1, read-out: Half life (T1/2)
Description: Several examples of the objective compound (I) as obtained in Examples were tested for stability against a mouse Kidney homogenate by the following method.
A kidney homogenate was prepared by grinding down 50 g of the mouse kidney in 200 ml of cooled 0.05M phosphate buffer (pH 6.9) and stored at -20° C. A 200 μl portion of this mouse kidney homogenate and 200 μl of an aqueous solution of the test compound (1 mg/ml) were intimately mixed and kept at 30° C. At 10-minute intervals, a 25 μl portion of the mixture was taken and added to 25 μl of ice bath-cooled methanol to thereby terminate the reaction between renal enzymes and the test compound. The amount of the remaining test compound was determined by measuring the inhibitory action against β-lactamaseproduced by Proteus vulgaris GN4413 or Enterobacter cloacae TN1282 by the method described in Journal of Antibiotics, 34, 212-217 (1981).

Klebsiella pneumoniae DT = experiment: MIC by agar dilution method, Klebsiella pneumoniae DT; type: cell-based; conditions: Trypticase soy agar, about 10^8 CFU/ml, 18 hours at 37° C., read-out: MIC (minimal inhibitory concentration)
Description: as §1, §2
(4) Klebsiella pneumoniae DT

Structure (SMILES) | MIC (Escherichia coli 0-111) | MIC [1] | MIC [2] | half-life [3] | MIC (Klebsiella pneumoniae DT)
O=C(O)C1=C(Sc2ncccn2)C[C@@H]2[C@H](C3(O)CCS(=O)(=O)C3)C(=O)N12 (stereo partly drawn) [2 (b), sodium 5,6-cis-3-(2-pyrimidinylthio)-6-(1-hydroxy-3-thiacyclopentyl-3,3-dioxido)-7-oxo-1-azabicyclo[3.2.0]hept-2-ene-2-carboxylate] | 3.13 µg/mL | 0.78 µg/mL | 6.25 µg/mL | > 2 h | 6.25 µg/mL
CC(=O)NCCSC1=C(C(=O)O)N2C(=O)[C@@H](C(O)CS(C)(=O)=O)[C@H]2C1 (stereo partly drawn) [12 (b), sodium 5,6-cis-3-(2-acetamidoethylthio)-6-(1-hydroxy-2-methylsulfonylethyl)-7-oxo-1-azabicyclo[3.2.0]hept-2-ene-2-carboxylate] | 0.39 µg/mL | 1.56 µg/mL | 3.13 µg/mL | > 2 h | 1.56 µg/mL
CC(=O)N/C=C/SC1=C(C(=O)O)N2C(=O)[C@@H](C3(O)CCS(=O)(=O)C3)[C@H]2C1 (stereo partly drawn) [13 (b), sodium 5,6-cis-3-[(E)-2-acetamidovinylthio]-6-(1-hydroxy-3-thiacyclopentyl-3,3-dioxido)-7-oxo-1-azabicyclo[3.2.0]hept-2-ene-2-carboxylate] | 0.39 µg/mL | 1.56 µg/mL | 1.56 µg/mL | > 2 h | 0.78 µg/mL
CCS(=O)(=O)CC(O)C1C(=O)N2C(C(=O)O)=C(SCCNC(C)=O)CC12 (stereo not drawn) [15 (b)] | 0.2 µg/mL (≈ 0.492 µM) | 6.25 µg/mL (≈ 15.4 µM) | 3.13 µg/mL (≈ 7.7 µM) | > 2 h | 3.13 µg/mL (≈ 7.7 µM)
CC(=O)NCCSC1=C(C(=O)O)N2C(=O)C(C(O)CS(=O)(=O)c3ccccc3)C2C1 (stereo not drawn) [20 (b)] | 0.39 µg/mL (≈ 0.858 µM) | 1.59 µg/mL (≈ 3.5 µM) | 1.56 µg/mL (≈ 3.43 µM) | > 2 h | 3.13 µg/mL (≈ 6.89 µM)
CC(=O)NCCSC1=C(C(=O)O)N2C(=O)[C@@H](C3(O)CCS(=O)(=O)C3)[C@H]2C1 (stereo partly drawn) [Example 1 (c), Sodium 5,6-cis-3-(2-acetamidoethylthio)-6-(1-hydroxy-3-thiacyclopentyl-3,3-dioxido)-7-oxo-1-azabicyclo-[3.2.0]hept-2-ene-2-carboxylate] | 0.39 µg/mL | 3.13 µg/mL | 3.13 µg/mL | > 2 h | 3.13 µg/mL
